Experimental data reported in US20240216490A1, “Autoantigens Engineered to Suppress Autoimmune Response” (Osprey Biopharmaceuticals, Inc., priority 2022, published 2024).

What was measured:
Siglec-2 (CD22) = biological target: T1, Siglec-2 (CD22) (Homo sapiens, UniProt P20273); conditions: value from cited reference; cited from earlier work
T1 sequence (P20273 20-847): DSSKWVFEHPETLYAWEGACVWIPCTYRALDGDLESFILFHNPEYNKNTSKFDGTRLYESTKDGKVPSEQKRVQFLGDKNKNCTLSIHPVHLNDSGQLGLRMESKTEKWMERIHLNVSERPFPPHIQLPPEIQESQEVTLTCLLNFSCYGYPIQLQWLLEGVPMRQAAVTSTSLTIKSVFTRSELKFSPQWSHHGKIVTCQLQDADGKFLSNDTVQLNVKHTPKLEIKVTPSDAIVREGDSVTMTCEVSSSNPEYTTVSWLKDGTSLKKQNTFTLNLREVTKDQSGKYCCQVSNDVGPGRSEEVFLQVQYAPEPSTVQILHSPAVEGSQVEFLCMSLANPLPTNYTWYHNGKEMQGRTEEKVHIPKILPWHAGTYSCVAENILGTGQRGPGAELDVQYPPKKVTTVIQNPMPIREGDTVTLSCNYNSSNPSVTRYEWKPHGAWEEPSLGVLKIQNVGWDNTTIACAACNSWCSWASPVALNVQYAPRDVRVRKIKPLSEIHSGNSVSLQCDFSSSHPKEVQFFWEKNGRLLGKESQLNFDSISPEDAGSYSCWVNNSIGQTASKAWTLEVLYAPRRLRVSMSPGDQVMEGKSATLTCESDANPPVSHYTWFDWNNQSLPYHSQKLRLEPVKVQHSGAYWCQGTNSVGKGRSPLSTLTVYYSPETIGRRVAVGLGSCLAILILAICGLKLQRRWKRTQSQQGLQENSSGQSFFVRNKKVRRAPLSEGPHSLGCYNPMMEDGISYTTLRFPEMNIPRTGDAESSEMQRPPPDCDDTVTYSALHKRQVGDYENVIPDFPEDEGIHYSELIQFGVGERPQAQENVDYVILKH

C57BL6 mice [1] = test: prophylactic tolerization and anti-drug antibody (ADA) production in C57BL6 mice (Example 4); format: in vivo, mouse; conditions: 4 weekly s.c. doses of 4 mg/kg; serum day 28
Excerpt: To evaluate the production of antibodies specific to adalimumab, two control groups of C57BL6 mice were immunized with adalimumab or the individual SigL-conjugated adalimumab antibodies. Conjugates bear BPC-Neu5Gc-based Siglec Ligand-Linker structures with affinity for Siglec-2. On study day −1, animals were randomized into treatment groups based on body weight. On study day 0, animals were bled for baseline serum and then injected subcutaneously (s.q.) with adalimumab or the individual SigL-conjugated adalimumab antibodies once every seven days for a total of four injections over twenty-eight days. The individual antigens were prepared by making a 0.8 mg/ml antigen solution in sterile buffered saline. Animals were then injected with 0.1 ml (˜4 ml/kg) of the 0.8 mg/ml antigen on the rear flanks. The total dose based on a 20 g mouse would be 4 mg/kg per injection. […]
(§1) Anti-drug antibody (ADA) response assays were performed on 96-well assay plates (Nunc Plates, Black 96-Well Immuno Plates, Thermo Scientific, 437111) coated with antigen, as follows. […] The excitation and emission settings for the QuantaBlu Fluorogenic Peroxide Substrates are 325 nm and 420 nm and the relative florescence units were measured using a SpectraMax plate reader. […] Titers were determined by the dilution of serum that gives a 2× OD above background.

C57BL6 mice [2] = test: anti-antigen antibody production in C57BL6 mice pre-dosed with adalimumab (Example 5); format: in vivo, mouse; conditions: one to four weekly 4 mg/kg s.c. doses (groups A to D); serum day 27
Excerpt: To evaluate the production of antibodies specific to adalimumab-SigL conjugates after pre-dosing with adalimumab, C57BL6 mice were immunized with adalimumab one, two, three, or four times (groups A to D), or once with adalimumab followed by two doses of adalimumab-SigL (Group E) (FIG. 5). Conjugates bear BPC-Neu5Gc-based Siglec Ligand-Linker structures with affinity for Siglec-2. On study day −1, animals were randomized into treatment groups based on body weight. On study day 0, animals were bled for baseline serum and then injected subcutaneously (s.q.) with adalimumab, SigL-conjugated adalimumab antibody, or PBS, once every seven days for a total of four injections over twenty-eight days. The individual antigens were prepared by making a 0.8 mg/ml antigen solution in sterile buffered saline. Animals were then injected with 0.1 ml (˜4 ml/kg) of the 0.8 mg/ml antigen on the rear flanks. […]
as §1

C57Bl/6 mice [3] = test: durability of tolerization with late adalimumab challenges (Example 12); format: in vivo, mouse; conditions: 4 weekly 4 mg/kg s.c. doses, then adalimumab 4 mg/kg at days 91, 147, 174, 202
Protocol: To evaluate the durability of the induced tolerization status established with the SigL-conjugated adalimumab (as exemplified in Examples 4 and 11), female C57Bl/6 mice (n=5 per group) were primed with four subcutaneous doses of either SigL-conjugated adalimumab (4 mg/kg) or unconjugated adalimumab (4 mg/kg) given seven days apart over a 28 day period. Animals in both groups were later challenged with single subcutaneous doses of unconjugated adalimumab (4 mg/kg) at days 91, 147, 174, and 202. Animals were injected with 0.1 ml (˜4 mg/kg) of the 0.8 mg/ml test article preparations on the rear flanks. The total dose based on a 20 g mouse would be 4 mg/kg per injection per dose. Bleeds were taken for anti-drug antibody analysis at days 0, 28, 112, 146, 168, 201, and 232. Anti-drug antibody (ADA) response assays were performed as described in Example 4.

C57Bl/6 mice [4] = test: ex vivo flow cytometry of splenic adalimumab-specific and germinal center B cells (Example 13); format: in vivo, mouse
Protocol: To measure B cell activation following the described stimulation, cells were washed twice by spinning cells at 1200 rpm for 5 minutes and rinsing with PBS. Cells were then resuspended in staining buffer (1% bovine serum albumin/0.1% sodium azide/1× phosphate buffered saline) and incubated with Fc-block (BD Biosciences) for five minutes before the addition of anti-CD45, anti-CD19, anti-CD69, and anti-CD86 antibodies (BD Biosciences, Biolegend, Fisher). Cells were then incubated in the dark for an additional 30 minutes at room temperature. Cells were then washed three times with staining buffer and then analyzed on a ZE5 Cell Analyzer (BioRad). Data analysis was performed using FlowJo (v10.8.0) software.
For studies evaluating the generation of adalimumab-specific B cells, C57Bl/6 mice were dosed with a single subcutaneous dose of either SigL-adalimumab (4 mg/kg) or unconjugated adalimumab (4 mg/kg). Splenocytes were then isolated from animals seven days after dosing. In the experiment depicted in FIG. 15, mice that had been dosed with unconjugated adalimumab (4 mg/kg) on Day 0 were dosed again on Day 3 with SigL-adalimumab (4 mg/kg, subcutaneous) or vehicle (PBS) prior to splenocyte isolation on Day 7 of the study.
For the evaluation of germinal center formation (FIG. 14), C57Bl/6 mice were dosed with a single subcutaneous dose of either SigL-adalimumab (4 mg/kg), unconjugated adalimumab (4 mg/kg) or vehicle (PBS) on Day 0. Animals in each arm of this study were then dosed on Day 7 with either a single subcutaneous dose of SigL-adalimumab (4 mg/kg) or unconjugated adalimumab (4 mg/kg). Formation of adalimumab-specific B cells and germinal center B cells were then analyzed on Day 14 of the study as described below.
At the specified time points described above, splenocytes were harvested from individual animals and made into single cell suspension, subjected to red cell lysis using ACK buffer, and plated at a concentration of 200,000 cells per well in round bottom 96 well plates in complete RPMI media. Cells were then processed for flow cytometry as described above. For adalimumab-specific B cells, splenocytes were stained with anti-CD4, ant-CD8a, anti-F4/80, anti-LY6G, anti-CD19, anti-IgD (BD Biosciences, Biolegend, Fisher, eBioscience) and adalimumab-[…] conjugate (Invitrogen). For germinal center B cells, splenocytes were stained with anti-CD45, anti-CD19, anti-GL7, and anti-CD95. Cells were then incubated in the dark for an additional 30 minutes at room temperature. Cells were then washed three times with staining buffer and then analyzed on a ZE5 Cell Analyzer (BioRad). Data analysis was performed using FlowJo (v10.8.0) software.

C57Bl/6 mice [5] = test: ADA response to adalimumab-anti-mouse CD22 scFv fusion protein in mice (Example 15); format: in vivo; conditions: after a single 4 mg/kg dose
Excerpt: To evaluate the production of antibodies specific to adalimumab and/or adalimumab-anti-mouse CD22 scFv fusion protein, 8 week old female C57BL/6 mice (n=5 per group) were immunized through intravenous injection with adalimumab or adalimumab-anti-mouse CD22 scFv fusion protein. On study day −1, animals were randomized into treatment groups based on body weight. On study day 0, animals were bled for baseline serum and then injected IV with adalimumab or adalimumab-anti-mouse CD22 scFv fusion protein. Animals were dosed […] with 4 mg/kg of adalimumab or adalimumab-anti-mouse CD22 scFv fusion protein. Animals were bled via the retro-orbital sinus weekly throughout the study under inhaled isoflurane anesthesia. On study day, 28 animals were anesthetized with inhaled isoflurane anesthesia and then bled via cardiac puncture and then sacrificed by cervical dislocation. […]
as §1, with “ADA” for “Anti-drug antibody (ADA) response”

**Q.** Which IC50 (Siglec-2 (CD22)) does the source give for `CO[C@]1(C(=O)O)CC(O)[C@@H](NC(C)=O)C([C@H](O)[C@H](O)CNC(=O)c2ccc(-c3ccccc3)cc2)O1` (stereo partly shown) here?
**A.** 4000 nM

**Q.** For `O=C(Cc1ccc(-c2ccc(O)cc2)cc1)NCC(O)C(O)C1OC(OCc2ccccc2)(C(=O)O)CC(O)C1NC(=O)CO` (stereo not shown), which IC50 (Siglec-2 (CD22)) is on record?
**A.** 100 nM

**Q.** Which IC50 (Siglec-2 (CD22)) does the source give for `O=C(Cc1ccc(-c2ccc(O)cc2)cc1)NC[C@@H](O)C(O)C1O[C@@](OCc2cccc(Cl)c2Cl)(C(=O)O)CC(O)[C@H]1NS(=O)(=O)c1ccccc1[N+](=O)[O-]` (stereo partly shown) here?
**A.** 60 nM

**Q.** What does the source list for adalimumab?
**A.** immunogenicity (anti-drug antibody response, serum IgG titer) (C57BL6 mice [1]): highly immunogenic; anti-adalimumab titers (C57BL6 mice [2]): progressively stronger anti-adalimumab titers; anti-drug antibody level (C57Bl/6 mice [3]): strong, saturating level of ADA; presence of adalimumab-specific B cells (CD45+CD19+IgD−Adal+) in spleen (C57Bl/6 mice [4]; 7 days post single 4 mg/kg s.c. dose): detected; splenic adalimumab-specific B cells (C57Bl/6 mice [4]; day 14, s.c. dosing days 0 and 7, conjugate day 0 followed by adalimumab day 7): induces; mean abundance of adalimumab-specific B cells (C57Bl/6 mice [4]; spleen, 7 days post single 4 mg/kg s.c. dose): 0.2 % of splenic IgD^− B cells; germinal center B cells (CD19+CD95+GL7+) (C57Bl/6 mice [4]; spleen, day 14, dosing days 0 and 7): increase in the abundance of germinal center B cells; immunogenicity in mice (immunoglobulin response) (C57Bl/6 mice [5]): highly immunogenic

**Q.** Which IC50 (Siglec-2 (CD22)) does the source give for `COC1(C(=O)O)CC(NS(=O)(=O)c2ccc(C)cc2)C(NC(C)=O)C(C(O)C(O)CNC(=O)c2ccc(-c3ccccc3)cc2)O1` (stereo not shown) here?
**A.** 150 nM

**Q.** Which IC50 (Siglec-2 (CD22)) does the source give for `COc1ccc(OC2OC(COC3(C(=O)O)CC(O)C(NC(=O)CO)C(C(O)C(O)CNCc4ccc(-c5ccc(O)cc5)cc4)O3)C(O)C(O)C2O)cc1` (stereo not shown) here?
**A.** 240 nM
